Assay results published in PubChem BioAssay (NCI).
Values joined by “and” are separate entries in the source; they are usually repeats but may differ in a detail not shown here. Equal values may be shown once.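 Grown in 96-well plates, cells were treated for 48 hours with each compound at five concentrations. Insufficient inhibition: endpoint recorded as highest concentration tested. GI50: concentration for 50% inhibition of growth. The concentration for full growth arrest is given as TGI.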

Key:
Assay in all cases: NCI tumour cell line growth inhibition, 48 h
[1] = test system: SK-MEL-2 melanoma
[2] = test system: SK-OV-3 ovarian
[3] = test system: LOX IMVI melanoma
[4] = test system: NCI-H460 lung
[5] = test system: TK-10 renal
[6] = test system: U251 CNS
[7] = test system: SK-MEL-28 melanoma
[8] = test system: SN12C renal
[9] = test system: HT29 colon
[10] = test system: MALME-3M melanoma
[11] = test system: CAKI-1 renal
[12] = test system: MDA-MB-231 breast
[13] = test system: M14 melanoma
[14] = test system: KM12 colon
[15] = test system: T-47D breast
[16] = test system: UACC-62 melanoma
[17] = test system: A498 renal
[18] = test system: NCI/ADR-RES ovarian
[19] = test system: UO-31 renal
[20] = test system: DU-145 prostate
[21] = test system: SNB-75 CNS
[22] = test system: SW-620 colon
[23] = test system: K-562 leukemia
[24] = test system: HCT-116 colon
[25] = test system: OVCAR-4 ovarian
[26] = test system: OVCAR-5 ovarian
[27] = test system: SNB-19 CNS
[28] = test system: HCT-15 colon
[29] = test system: IGROV1 ovarian
[30] = test system: HOP-92 NSCLC
[31] = test system: SF-295 CNS
[32] = test system: OVCAR-8 ovarian
[33] = test system: COLO 205 colon
[34] = test system: RXF 393 renal
[35] = test system: HOP-62 NSCLC
[36] = test system: A549 NSCLC
[37] = test system: MDA-N
[38] = test system: UACC-257 melanoma
[39] = test system: NCI-H226 lung
[40] = test system: SF-268 CNS
[41] = test system: SK-MEL-5 melanoma
[42] = test system: HS 578T breast
[43] = test system: PC-3 prostate
[44] = test system: CCRF-CEM leukemia
[45] = test system: SF-539 CNS
[46] = test system: MDA-MB-435
[47] = test system: MOLT-4 leukemia
[48] = test system: 786-0 renal
[49] = test system: HL-60(TB) leukemia
[50] = test system: ACHN renal
[51] = test system: NCI-H23 lung
[52] = test system: HCC-2998 colon
[53] = test system: OVCAR-3 ovarian
[54] = test system: P388 leukemia
[55] = test system: EKVX NSCLC
[56] = test system: BT-549 breast
[57] = test system: RPMI-8226 leukemia
[58] = test system: NCI-H522 lung
[59] = test system: SR leukemia
[60] = test system: MCF7 breast
[61] = test system: P388/ADR leukemia
[62] = test system: XF 498 CNS
[63] = test system: DMS 273 small cell lung
[64] = test system: M19-MEL melanoma
[65] = test system: DMS 114 small cell lung
[66] = test system: DLD-1 colon
[67] = test system: HOP-18 NSCLC
[68] = test system: SNB-78 CNS
[69] = test system: KM20L2 colon
[70] = test system: SN12K1 renal

SMILES: O=c1[nH]c(=O)n([C@H]2CCCO2)cc1F
- GI50 [1]: 1.95 mM
- TGI [1]: > 5 mM
- GI50 [2]: > 3.62 mM
- TGI [2]: 0.984 mM and > 5 mM
- GI50 [3]: 1.12 mM
- TGI [3]: > 5 mM
- GI50 [4]: 0.291 mM
- TGI [4]: 0.83 mM and > 3.64 mM
- GI50 [5]: 1.88 mM
- TGI [5]: > 5 mM
- GI50 [6]: > 4.57 mM
- TGI [6]: > 5 mM
- GI50 [7]: 1.04 mM
- TGI [7]: > 5 mM
- GI50 [8]: 1.91 mM
- TGI [8]: > 5 mM
- GI50 [9]: 1.37 mM
- TGI [9]: > 5 mM
- GI50 [10]: 1.36 mM
- TGI [10]: > 5 mM
- GI50 [11]: 2.1 mM
- TGI [11]: > 5 mM
- TGI [12]: > 5 mM
- GI50 [13]: 1.45 mM
- TGI [13]: > 5 mM
- GI50 [14]: 1.32 mM
- TGI [14]: > 5 mM
- GI50 [15]: 2.61 mM
- TGI [15]: > 5 mM
- GI50 [16]: 2.04 mM
- TGI [16]: > 5 mM
- GI50 [17]: > 2.17 mM
- TGI [17]: 0.979 mM and > 5 mM
- GI50 [18]: 3.03 mM
- TGI [18]: > 5 mM
- TGI [19]: > 5 mM
- GI50 [20]: 0.91 mM
- TGI [20]: > 5 mM
- GI50 [21]: > 5 mM
- TGI [21]: 0.826 mM and > 5 mM
- GI50 [22]: 1.43 mM
- TGI [22]: > 5 mM
- GI50 [23]: 2.77 mM
- TGI [23]: > 5 mM
- GI50 [24]: 1.02 mM
- TGI [24]: > 5 mM
- TGI [25]: > 5 mM
- GI50 [26]: 2.66 mM
- TGI [26]: > 5 mM
- TGI [27]: > 5 mM
- GI50 [28]: 1.05 mM
- TGI [28]: > 5 mM
- GI50 [29]: 2.27 mM
- TGI [29]: > 5 mM
- TGI [30]: > 5 mM
- GI50 [31]: > 4.53 mM
- TGI [31]: > 5 mM
- GI50 [32]: 2.27 mM
- TGI [32]: > 5 mM
- GI50 [33]: 1.09 mM
- TGI [33]: > 5 mM
- GI50 [34]: 1.06 mM
- TGI [34]: > 5 mM
- GI50 [35]: 2.34 mM
- TGI [35]: 0.994 mM and > 4.66 mM
- GI50 [36]: 0.625 mM
- TGI [36]: > 5 mM
- GI50 [37]: 0.357 mM
- TGI [37]: > 5 mM
- GI50 [38]: 3.54 mM
- TGI [38]: > 5 mM
- GI50 [39]: 3.65 mM
- TGI [39]: 0.72 mM and > 5 mM
- GI50 [40]: 3 mM
- TGI [40]: > 5 mM
- GI50 [41]: 0.429 mM
- TGI [41]: > 2.6 mM
- TGI [42]: > 4.65 mM
- TGI [43]: > 5 mM
- GI50 [44]: 0.527 mM
- TGI [44]: > 5 mM
- GI50 [45]: 0.374 mM
- TGI [45]: 0.864 mM and 3.52 mM
- GI50 [46]: 1.35 mM
- TGI [46]: > 5 mM
- GI50 [47]: > 3.5 mM
- TGI [47]: > 5 mM
- GI50 [48]: 1.78 mM
- TGI [48]: > 5 mM
- GI50 [49]: 1.03 mM
- TGI [49]: > 5 mM
- GI50 [50]: 2.6 mM
- TGI [50]: > 5 mM
- GI50 [51]: 0.936 mM
- TGI [51]: > 5 mM
- GI50 [52]: 1.01 mM
- TGI [52]: > 3.02 mM
- GI50 [53]: 1.65 mM
- TGI [53]: > 5 mM
- TGI [54]: 0.565 mM
- GI50 [55]: > 2.06 mM
- TGI [55]: > 5 mM
- TGI [56]: > 5 mM
- GI50 [57]: 0.666 mM
- TGI [57]: > 5 mM
- GI50 [58]: > 2.65 mM
- TGI [58]: > 5 mM
- GI50 [59]: 0.473 mM
- TGI [59]: > 2.36 mM
- GI50 [60]: 0.575 mM
- TGI [60]: > 5 mM

SMILES: CC1(C)OC2CC(=O)OCC23C1CC(=O)C1(C)C3CCC2(C)C(c3ccoc3)OC(=O)C3OC321 (configuration not stated)
- TGI [1]: > 0.125 mM
- TGI [2]: > 0.125 mM
- TGI [3]: > 0.125 mM
- TGI [4]: > 0.125 mM
- TGI [6]: > 0.125 mM
- TGI [7]: > 0.125 mM
- TGI [8]: > 0.0395 mM
- TGI [9]: > 0.125 mM
- TGI [10]: > 0.125 mM
- TGI [11]: > 0.125 mM
- TGI [61]: > 0.125 mM
- TGI [62]: > 0.125 mM
- TGI [14]: > 0.125 mM
- TGI [16]: > 0.125 mM
- TGI [17]: > 0.125 mM
- TGI [18]: > 0.125 mM
- TGI [19]: > 0.125 mM
- TGI [63]: > 0.125 mM
- TGI [21]: > 0.109 mM
- TGI [22]: > 0.125 mM
- TGI [23]: > 0.0703 mM
- TGI [24]: > 0.125 mM
- TGI [25]: > 0.125 mM
- TGI [26]: > 0.125 mM
- TGI [27]: > 0.125 mM
- TGI [28]: > 0.125 mM
- TGI [29]: > 0.125 mM
- TGI [31]: > 0.125 mM
- TGI [64]: > 0.125 mM
- TGI [32]: 0.00703 mM
- TGI [33]: > 0.125 mM
- TGI [34]: > 0.125 mM
- TGI [65]: > 0.125 mM
- TGI [35]: > 0.125 mM
- TGI [36]: > 0.125 mM
- TGI [66]: > 0.125 mM
- TGI [38]: > 0.125 mM
- TGI [39]: > 0.125 mM
- TGI [40]: > 0.125 mM
- TGI [41]: > 0.125 mM
- TGI [44]: > 0.125 mM
- TGI [45]: > 0.125 mM
- TGI [47]: > 0.125 mM
- TGI [49]: > 0.125 mM
- TGI [51]: > 0.125 mM
- TGI [52]: > 0.125 mM
- TGI [53]: > 0.125 mM
- TGI [67]: > 0.125 mM
- TGI [54]: > 0.0395 mM
- TGI [68]: > 0.125 mM
- TGI [55]: > 0.058 mM
- TGI [57]: > 0.125 mM
- TGI [69]: > 0.125 mM
- TGI [58]: > 0.125 mM
- TGI [70]: > 0.125 mM
- TGI [60]: > 0.0703 mM
